The values that follow come from paper PMC8780658 (Pharmaceutics, 2021).

Data set [1] is described as follows: Pharmacokinetics after intravenous injection. In kind it is in vivo. Conditions: BALB/c nude mice, i.v. As to the method:
Mice were bred under pathogen-free conditions at the Korea Institute of Science and Technology (KIST). All experiments with live animals were performed in compliance with the relevant laws and institutional guidelines of Institutional Animal Care and Use Committee (IACUC) in Korea Institute of Science and Technology (KIST), and IACUC approved the experiment (approved number of 2020-123). […] Then, each drug in the blood samples was extracted with DMSO by intense vortex and the samples were centrifuged at 2000 rpm for 40 min to obtain as a blood plasma. Finally, amount of free DOX and Al-ProD in samples was analyzed by IVIS Lumina Series III system (PerkinElmer; Waltham, MA, USA).

Data set [2] deals with MDA-MB231 tumor. Put plainly: Biodistribution in breast tumor models (NIRF imaging). As to the method:
The biodistribution of Al-ProD was assessed in breast tumor models, which were prepared by subcutaneous inoculation of 1 × 10^7 MBA-MB231 cells into the left flank of BALB/c nude mice. […] Then, noninvasive near-infrared fluorescence (NIRF) imaging was performed using an IVIS Lumina Series III system after 0 h, 3 h, 6 h, 12 h, 24 h, 48 h, and 72 h of injection. Fluorescence intensities in tumor regions were quantified via Living Image software. Mice were sacrificed after 12 h of injection for ex vivo imaging, followed by the collection of lung, liver, kidney, spleen, heart, and tumor tissues. Tumor tissues were also cut into 10 µm thick sections for histological assays. Slide-mounted tumor sections were analyzed by Leica TCS SP8 confocal laser-scanning microscope.

Data set [3] in a line: In vivo toxicity evaluation in MDA-MB231 tumor-bearing mice. As to the method:
(§1) Antitumor efficacy was assessed by measuring tumor volumes once every two days, calculated as largest diameter × smallest diameter^2 × 0.53, once every 2 days. The body weights of mice were also measured once every two days to assess in vivo toxicity. The in vivo toxicity of Al-ProD was further assessed by histological analyses. At 20 days after treatment, major organs were collected from mice and samples were stained with H&E following the manufacturer’s protocol. Then, organ sections were observed using an optical microscope.

Data set [4] concerns the target T1, bovine serum albumin (BSA) (Bos taurus, UniProt P02769).
T1 construct: purchased Sigma Aldrich
Put plainly: Albumin binding of Al-ProD, SDS-PAGE band shift. To be noted: 100 µM compound, 700 µM albumin in PBS pH 7.4, room temperature, 1 h; native 12% SDS-PAGE, trans-UV; unbound band below 7 kDa. The procedure:
(§2) The albumin-binding property of Al-ProD was firstly evaluated. Briefly, to a human serum albumin (HSA), mouse serum albumin (MSA), or bovine serum albumin (BSA; 700 µM in PBS; pH 7.4), Al-ProD (100 µM) was added and incubated for 0, 5, and 60 min at room temperature. As a control, the HSA solution was pre-incubated with γ-maleimidobutyric acid for 1 h before adding Al-ProD. After incubation, samples were analyzed via native 12% SDS-PAGE gel. The gels were observed by trans-UV using the iBright^TM Imaging System (Invitrogen by Thermo Fisher Scientiric), and then stained with coomassie blue for visualizing proteins. The albumin-binding property of Al-ProD was further analyzed using reverse-phased high performance liquid chromatography (RP-HPLC; […]; Agilent Technologies) with ACN/H2O gradient from 80:20 to 20:80 for 30 min under a fluorescence detector (Ex/Em: 530/590 nm). […] Next, cathepsin B-specific cleavage of Al-ProD that was pre-incubated with HSA for 5 min (HSA-bound Al-ProD; 10 µM) was assessed by incubating with cathepsin B, cathepsin E, cathepsin D, cathepsin L, caspase-9, or caspase-3 (50 µg) at 37 °C for 24 h, followed by an analysis using HPLC with ACN/H2O gradient from 20:80 to 80:20 for 30 min.

Data set [5] deals with T2, mouse serum albumin (MSA) (Mus musculus, UniProt P07724).
T2 construct: purchased Sigma Aldrich
Put plainly: Albumin binding of Al-ProD, SDS-PAGE band shift. To be noted: 100 µM compound, 700 µM albumin in PBS pH 7.4, room temperature, 1 h; native 12% SDS-PAGE, trans-UV; unbound band below 7 kDa. As to the method: as §2

The subject of another data set is MDA-MB231 cells. Nature of the data set: Cellular uptake, confocal fluorescence imaging. In kind it is cell-based, human. To be noted: 2 µM, 48 h, 37 °C, CLSM. As to the method:
(§3) To assess intracellular behavior of Al-ProD via fluorescence imaging, 3 × 10^5 MDA-MB231 and H9C2 cells were seeded in confocal dishes. […] As a control, MDA-MB231 cells were pre-incubated for 2 h with cathepsin B-inhibitory siRNA that was pre-incubated with Lipofectamine 2000 for 40 min at room temperature. Then, cells were washed twice with DPBS, fixed with 5% paraformaldehyde for 15 min, and stained with 4′,6-diamidino-2-phenylindole (DAPI) for 10 min. Fluorescence imaging was performed using a Leica TCS SP8 confocal laser-scanning microscope (Leica Microsystems GmbH; Wetzlar, Germany). The DOX fluorescence in images was quantitatively analyzed using an Image Pro software (Media Cybernetic, Rockville, MD, USA).

The subject of the next data set is H9C2 cells. Nature of the data set: Cellular uptake, confocal fluorescence imaging. The data set is classed as cell-based, rat. Conditions: 2 µM, 48 h, 37 °C, CLSM. The procedure: as §3
Data set [6] deals with MDA-MB231 tumor. Put plainly: Antitumor efficacy in MDA-MB231 tumor-bearing mice. In kind it is in vivo, BALB/c nude mice. Conditions: 3 mg/kg based on DOX contents, once every three days; saline group 1810.98 ± 544.56 mm^3. The procedure:
as §1

[7] abbreviates: 12 h after i.v. injection, 3 mg/kg based on DOX contents.
[8] abbreviates: 3 mg/kg based on DOX contents, once every three days.

Where a SMILES comes first, the peptide text is derived from it. The star is where a group is joined. Doxorubicin(3'-N) = COc1cccc2c1C(=O)c1c(O)c3c(c(O)c1C2=O)C[C@@](O)(C(=O)CO)C[C@@H]3O[C@H]1C[C@H](N*)[C@H](O)[C@H](C)O1; Propanoyl(3-maleimido) = O=C1C=CC(=O)N1CCC(=O)*; PEG2 = NCCOCCOCCC(=O)O

T2 sequence (P07724 25-608): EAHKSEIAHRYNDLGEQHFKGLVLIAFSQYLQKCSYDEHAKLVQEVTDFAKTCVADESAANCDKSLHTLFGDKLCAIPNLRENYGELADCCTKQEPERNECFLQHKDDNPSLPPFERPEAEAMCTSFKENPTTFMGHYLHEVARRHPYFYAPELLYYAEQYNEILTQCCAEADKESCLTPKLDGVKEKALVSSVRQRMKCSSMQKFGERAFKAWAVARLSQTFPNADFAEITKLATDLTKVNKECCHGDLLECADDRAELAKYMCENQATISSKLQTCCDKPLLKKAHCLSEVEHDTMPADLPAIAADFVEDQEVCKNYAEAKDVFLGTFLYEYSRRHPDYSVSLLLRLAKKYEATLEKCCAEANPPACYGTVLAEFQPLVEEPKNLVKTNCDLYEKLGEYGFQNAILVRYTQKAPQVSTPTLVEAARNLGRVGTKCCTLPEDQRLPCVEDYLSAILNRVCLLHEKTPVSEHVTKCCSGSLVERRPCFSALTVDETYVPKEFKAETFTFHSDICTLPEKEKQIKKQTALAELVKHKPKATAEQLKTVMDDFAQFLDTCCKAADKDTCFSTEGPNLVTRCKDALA
T1 sequence (P02769 25-607): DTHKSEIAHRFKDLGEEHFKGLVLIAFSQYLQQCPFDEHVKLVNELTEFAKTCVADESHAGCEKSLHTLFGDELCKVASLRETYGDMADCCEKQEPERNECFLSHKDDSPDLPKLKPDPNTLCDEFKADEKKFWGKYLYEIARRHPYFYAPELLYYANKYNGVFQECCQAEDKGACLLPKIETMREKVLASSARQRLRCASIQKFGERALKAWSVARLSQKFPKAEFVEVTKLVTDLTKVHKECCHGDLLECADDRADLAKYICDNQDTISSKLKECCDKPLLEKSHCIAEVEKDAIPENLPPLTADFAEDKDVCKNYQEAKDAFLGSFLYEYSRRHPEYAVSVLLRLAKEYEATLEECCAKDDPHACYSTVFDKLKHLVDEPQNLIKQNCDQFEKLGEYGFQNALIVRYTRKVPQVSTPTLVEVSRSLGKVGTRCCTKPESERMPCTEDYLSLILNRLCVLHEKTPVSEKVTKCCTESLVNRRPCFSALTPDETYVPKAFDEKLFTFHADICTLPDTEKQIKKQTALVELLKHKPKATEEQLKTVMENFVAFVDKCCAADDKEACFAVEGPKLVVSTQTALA

As to `COc1cccc2c1C(=O)c1c(O)c3c(c(O)c1C2=O)C[C@@](O)(C(=O)CO)C[C@@H]3O[C@H]1C[C@H](NC(=O)CNC(=O)[C@H](CCCNC(=N)N)NC(=O)[C@H](CCCNC(=N)N)NC(=O)[C@H](Cc2ccccc2)NC(=O)CCOCCOCCNC(=O)CCN2C(=O)C=CC2=O)[C@H](O)[C@H](C)O1` [Al-ProD, maleimide-PEG2-FRRG-DOX] ({Propanoyl(3-maleimido)-PEG2}-FRRG-{Doxorubicin(3'-N)}), in data set [1] (3 mg/kg based on DOX contents), the “AUC increase compared with free DOX” value is listed as “approximately sevenfold” and the “Time for which a detectable amount remained in the body” value amounted to 144 h. Moreover, in the data set with MDA-MB231 tumor [2] (setting [7]), the “DOX fluorescence from tumor tissues relative to free DOX, NIRF imaging” value was 3.33–4.08 fold and the “DOX fluorescence in tumor tissues relative to free DOX group, ex vivo imaging” value is 3.41–4.92 fold. Besides, in the data set on MDA-MB231 tumor [2] (12 h after i.v. injection, 3 mg/kg based on DOX contents, confocal microscopy), the “DOX fluorescence in whole tumor tissue sections (histology)” value was “strong DOX fluorescence”. In addition, the “Time for which DOX fluorescence was retained in tumor tissues” value in the data set with MDA-MB231 tumor [2] (NIRF imaging, i.v., 3 mg/kg based on DOX contents) is recorded as 72 h. In data set [3] (setting [8]), the “Body weights during treatment” value is given as “no significant body weight loss” and the “Mice survival during treatment” value is “over 25 days”. Moreover, the “Normal organs stained with H&E” value in data set [3] (day 20 after treatment) was “negligible toxicity”.
With `COc1cccc2c1C(=O)c1c(O)c3c(c(O)c1C2=O)C[C@@](O)(C(=O)CO)C[C@@H]3O[C@H]1C[C@H](N)[C@H](O)[C@H](C)O1` [free DOX, doxorubicin], the “Band in SDS-PAGE gel after incubation with BSA (albumin binding)” value in data set [4] was “not bound”. Moreover, the “Band in SDS-PAGE gel after incubation with MSA (albumin binding)” value in data set [5] is “not bound”. The “Intracellular location of DOX fluorescence in MDA-MB231 cells” value in the data set on MDA-MB231 cells is recorded as “clearly observed at the nuclei”. Also, the “Intracellular location of DOX fluorescence in H9C2 cells” value in the data set with H9C2 cells was “clearly observed at the nuclei”. Moreover, in data set [1] (3 mg/kg based on DOX contents, plasma fluorescence by IVIS), the “In vivo half-life, T1/2” value came out at 15 min. In addition, the In vivo half-life in data set [1] (3 mg/kg, plasma fluorescence by IVIS) is reported as 15 min. In the data set with MDA-MB231 tumor [2] (mouse, in vivo, iv, 3 mg/kg), the “Course of DOX fluorescence in tumor tissues” value was “rapidly decreased for 6 h” and the “DOX fluorescence in whole tumor tissue sections (histology)” value is listed as “only a small quantity”. Further, the “Tumor volume on day 20 after treatment” value in the data set with MDA-MB231 tumor [6] was determined as 580.25 ± 139.92 mm^3. Moreover, the “Mice survival during treatment” value in data set [3] (setting [8]) was not above 18 days. Moreover, the Median survival in data set [3] (3 mg/kg once every three days, saline group 20 days) stood at 16 days. The “Normal organs stained with H&E” value in data set [3] (mouse, in vivo) is “structural abnormalities”.
